Experiments:
[1] = tested on: H1 human embryonic stem cells; assay: Step-wise differentiation, FACS for CXCR4 after step 1 (Example 16); type: cell-based; conditions: 100 ng/ml GDF-8 with compound on first day, compared to activin A and Wnt3a
Procedure: (§1) The assay was initiated by aspirating the culture medium from each well and adding back an aliquot (0.5 ml) of test medium. Test conditions for the first step of differentiation were conducted over a three-day period, feeding daily by aspirating and replacing the medium from each well with fresh test medium. On the first day of assay, 100 ng/ml activin A (PeproTech; Cat #120-14) or 100 ng/ml GDF-8 (R&D Systems, Cat #788-G8) was added to respective assay wells where each growth factor was diluted into RPMI-1640 medium (Invitrogen; Cat #: 22400) with 2% Albumin Bovine Fraction V, Fatty Acid Free (FAF BSA) (Proliant Inc. Cat #: SKU 68700), and 20 ng/ml Wnt3a (R&D Systems; Cat #1324-WN/CF). On the second day of assay, 100 ng/ml activin A or 100 ng/ml GDF-8 was diluted into RPMI-1640 medium supplemented with 2% FAF BSA without Wnt3a. In some test samples using GDF-8, Wnt3a was replaced with a small molecule compound, added only on the first day of definitive endoderm differentiation. These small molecules included Compound 19 (2.5 μM in assay), Compound 202 (2.5 μM in assay), Compound 40 (2.5 μM in assay), or a commercially available GSK3 inhibitor BIO (0.5 μM in assay) (EMD Chemicals, Inc.; Cat #361550). At the conclusion of the first step of differentiation, cells from some wells were harvested for flow cytometry analysis to evaluate levels of CXCR4, a marker of definitive endoderm formation. Additional wells were harvested for RT-PCR analysis to measure other markers of differentiation.
Cells for FACS analysis were blocked in a 1:5 solution of 0.5% human gamma-globulin (Sigma; Cat#G-4386) in PBS (Invitrogen; Cat #14040-133): BD FACS staining buffer—BSA (BD; Cat #554657) for 15 minutes at 4° C. Cells were then stained with antibodies for CD9 PE (BD; Cat #555372), CD99 PE (Caltag; #MHCD9904) and CXCR4 APC(R&D Systems; Cat#FAB 173A) for 30 minutes at 4° C. After a series of washes in BD FACS staining buffer, the cells were stained for viability with 7-AAD (BD; Cat #559925) and run on a BD FACSArray. […]

[2] = tested on: H1 human embryonic stem cells; assay: Step-wise differentiation, high content analysis of SOX17, cell number, insulin, glucagon (Example 16); type: cell-based; conditions: GDF-8 with compound in step 1, relative to activin A and Wnt3a
Procedure: as §1
Step 5 of the differentiation protocol was carried out over seven days in DMEM-high glucose with 0.1% Albumax, 0.5× Insulin-Transferrin-Selenium, and 1 μM Alk 5 inhibitor. […]
Imaging was performed using an IN Cell Analyzer 1000 (GE Healthcare) utilizing the 51008bs dichroic for cells stained with Hoechst 33342 and Alexa Fluor 488. […] Segmentation for the nuclei was determined based on gray-scale levels (baseline range 100-300) and nuclear size. Averages and standard deviations were calculated for each replicate data set. […]

Question: Which “percentage of CXCR4 positive cells after step 1” value [1] does the source give for `O=C1Nc2cc(Br)ccc2/C1=C1/Nc2ccccc2/C1=N\O` [GSK3 inhibitor BIO, reference compound] here?
Answer: Its value is “equivalent or slightly higher percentage of CXCR4 positive cells”.

Question: What about the “relative cell numbers recovered through differentiation step 5” value [2] of the same compound?
Answer: The value was “decrease in cell number”.
